How the values were obtained:
[1] = tested on: Bovine retinal endothelial cells (BRECs); assay: In vitro oxidant stress assay (MTS viable cell assay) in retinal endothelial cells exposed to t-butyl hydroperoxide; type: cell-based
Procedure: The present example provides a study wherein cultured retinal endothelial cells were exposed to an oxidant stress to evaluate the protective effects of pretreatment with quercetin. In addition, the present example provides an assay system for screening compounds for therapeutic activity in nonproliferative diabetic retinopathy.
Bovine retinal endothelial cells (BRECs) (VEC Technologies, Rensselaer, N.Y.) were grown on fibronectin ([…])-coated plasticware at 37° C. in 5% CO2 in MCDB-131 Complete media (VEC Technologies, Rensselaer, N.Y.). For serum-free media (SFM) conditions, MCDB-131 was used supplemented at 5 ml/500 ml with 100× antibiotic/antimycotic, 10 mM L-glutamine, and 0.1% BSA (all from Life Technologies Inc., Grand Island, N.Y.).
The BRECs were seeded at 10,000 cells/well and allowed to attach and grow for three days in 0.2 ml/well in complete media (10% fetal bovine serum (FBS)). The complete media was replaced with SFM for the next twenty-four hours at which time 25 μM quercetin, 100 μM DL-buthionine-(S,R)-sulfoximine (BSO, Sigma, St. Louis, Mo.), and the 0.1% DMSO were added. The next day all media was replaced with SFM (0.1 ml/well) containing 0-500 μM t-butyl hydroperoxide (ICN Biomedicals, Irvine, Calif.). After four hours incubation at 37° C. in 5% CO2 the assay was started by adding 20 μl of a mixture of twenty parts MTS (3-(4,5-dimethythiazol-2-yl)-5-(3-carboxymethoxyphenyl)-2-(4-sulfophenyl)-2H-tetrazolium, inner salt) and one part PMS (phenazine methosulfate) from the Promega ClelTiter 96® AQueous Non-Radioactive Cell Proliferation Assay kit (Promega Corporation, Madison, Wis.). The plates were returned to the incubator for three hours and then net absorbances at 490 nm, obtained by subtraction of a blank mean, were recorded and used as a measure of levels of viable cells.
Using six wells per condition, the assay was carried out three times. The absorbance values were normalized such that the control wells without t-butyl hydroperoxide equaled 100%, and data from the three assays were pooled. An overall statistical difference was found among treatment groups (see FIGURE; ANOVA, P<0.05).

[2] = tested on: experimentally induced diabetic rats; conditions: oral administration; cited from earlier work
cultured human RPE cells = conditions: cited from earlier work
[3] = tested on: γ-glutamylcysteine synthetase; conditions: cited from earlier work
[4] = tested on: phase II detoxification enzyme; conditions: human retinal pigment epithelial cells; cited from earlier work
[5] = tested on: quinone reductase, glutathione-S-transferase, and glutathione reductase; conditions: various cell lines including human adult retinal pigment epithelial cells; cited from earlier work

## CCCCS(=N)(=O)CCC(N)C(=O)O (racemic) [BS, DL-buthionine-(S,R)-sulfoximine]
[1]; 100 μM BSO pretreatment alone, no t-butyl hydroperoxide
  cell survival: no effect on cell survival
[1]; 100 μM BSO pretreatment, all t-butyl hydroperoxide concentrations
  effect on toxicity of t-butyl hydroperoxide: significantly enhanced the toxicity

## O=c1c(-c2ccc(O)cc2)coc2cc(O)cc(O)c12 [genistein]
[2]
  retinal vascular leakage: reduces retinal vascular leakage

## Cc1c(-c2cnccn2)ssc1=S [oltipraz]
Cultured human RPE cells
  protection from chemical oxidants: Protection of cultured human RPE cells from chemical oxidants

## O=c1c(O)c(-c2ccc(O)c(O)c2)oc2cc(O)cc(O)c12 [quercetin]
[3]
  glutathione levels: increase glutathione levels
[1]; 25 μM quercetin pretreatment, then 0-500 μM t-butyl hydroperoxide 4 h, versus control group at each t-butyl hydroperoxide concentration
  numbers of viable cells (net absorbance at 490 nm, normalized to control without t-butyl hydroperoxide = 100%): higher numbers of viable cells than in the control group

## C[S+]([O-])CCCCN=C=S (stereo not shown) [sulforaphane]
[4]
  induction of a phase II detoxification enzyme: induction of a phase II detoxification enzyme
[5]
  enzyme induction: induce quinone reductase, glutathione-S-transferase, and glutathione reductase
Cultured human RPE cells
  protection from chemical oxidants: Protection of cultured human RPE cells from chemical oxidants

## CC(C)(C)OO [t-butyl hydroperoxide]
[1]; t-butyl hydroperoxide exposure 4 h, all concentrations up to 500 μM
  cell survival: significant reductions in cell survival

— US20100204244A1, “AGENTS FOR TREATMENT OF DIABETIC RETINOPATHY AND DRUSEN FORMATION IN MACULAR DEGENERATION” (ALCON INC., priority 2003, published 2010)
